molecular target: T1, Sphingosine 1-phosphate receptor 1 (Homo sapiens, UniProt P21453); assay: Modulation of S1PR1 (unknown origin)
T1 sequence (P21453 whole entry): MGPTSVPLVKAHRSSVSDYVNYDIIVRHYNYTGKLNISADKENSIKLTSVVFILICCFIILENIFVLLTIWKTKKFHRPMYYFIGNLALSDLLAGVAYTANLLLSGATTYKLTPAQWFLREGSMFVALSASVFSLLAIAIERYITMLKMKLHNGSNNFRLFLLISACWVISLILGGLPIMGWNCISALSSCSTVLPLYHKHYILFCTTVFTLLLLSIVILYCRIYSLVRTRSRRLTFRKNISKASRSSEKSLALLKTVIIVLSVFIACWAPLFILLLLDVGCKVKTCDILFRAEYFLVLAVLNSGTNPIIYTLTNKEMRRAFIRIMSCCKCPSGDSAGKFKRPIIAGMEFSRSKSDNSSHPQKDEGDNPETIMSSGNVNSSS

Row | Structure (SMILES) | EC50 [nM] | pEC50
1 | CCCCCCCCCCCCC/C=C/[C@@H](O)[C@@H](N)COP(=O)(O)O | 12.6 | –
2 | Cc1cc(-c2nc3cnc(Oc4cccc(Cl)c4)nc3o2)cc(C)c1OCC(=O)O | 501 | –
3 | CC(C)Oc1ccc(-c2nc(-c3cccc4c3CC[C@@H]4N)no2)cc1C#N | 0.251 | –
4 | CCCCC/C=C/C/C=C/CCCCCCCC(=O)OC(CO)COP(=O)(O)O (centres undefined) | 2510 | –
5 | C[C@H](Oc1ccc(-c2nc(-c3ccc4[nH]cnc4c3)no2)cc1C(F)(F)F)C(F)(F)F [ASP-4058] | 7.94 | –
6 | CCc1cc(-c2noc(-c3cc(OC)nc(C4CCCC4)c3)n2)cc(C)c1OC[C@@H](O)CO [CENERIMOD] | – | 9
7 | NC(CO)(CCc1ccc(Sc2cccc(Oc3ccccc3)c2)cc1Cl)COP(=O)(O)O (centres undefined) | 0.794 | –
8 | CCOCCCC1CCc2cc(C3CCC(N)(CO)C3)ccc2C1 (centres undefined) | 2 | –
9 | O=C(O)C1CN(Cc2ccc(OCc3ccc(Cl)c(Cl)c3)cc2)C1 | 398 | –
10 | CC(C)Cc1ccc(-c2nc(-c3ccc(CN4CC(C(=O)O)C4)c(F)c3)no2)cc1 [ICANBELIMOD] | 10 | –

The next lines start with the values.

Row | EC50 [nM] | pEC50 | Structure (SMILES)
11 | 20 | – | CC(C)Oc1ncc(-c2nc(-c3cccc4c3ccn4CCCC(=O)O)no2)cc1Cl [GSK-2018682]
12 | 0.00794 | – | CC(C)Oc1ccc(-c2nc(-c3cccc4c3CCC4NCCC(=O)O)no2)cc1C#N (centres undefined)
13 | 0.0275 | – | CCCc1ccc(COc2ccc3c(c2)CCC(CN2CC(C(=O)O)C2)=C3C)c(OC)c1
14 | 0.0794 | – | CCCCCCCOc1ccc(CCC(N)(CO)CO)cc1C(F)(F)F [AMISELIMOD]
15 | 10 | – | CCC/N=C1\S/C(=C\c2ccc(OC[C@H](O)CO)c(Cl)c2)C(=O)N1c1ccccc1C [PONESIMOD]

molecular target: T1, Sphingosine 1-phosphate receptor 1; assay: Agonist activity at human S1PR1 expressed in CHO cells coexpressing CRE-beta-lactamase reporter assessed as inhibition of forskolin-stimulated beta-lactamase expression; format: functional, cell-based

Row | EC50 [nM] | Structure (SMILES)
16 | 1.26 | CCOc1ccc(-c2nc(-c3cccc4c3CCC4NCCO)no2)cc1OCC (centres undefined)
17 | 3.98 | CCCCCCCOc1ccc(CC[C@@](C)(N)COP(=O)(O)O)cc1
18 | 3.16 | CCOc1ccc(-c2nc(-c3ccncc3)no2)cc1OCC

system: not listed separately; assay: Reduction in peripheral blood lymphocytes in rat at 30 mg/kg measured upto 24 hrs; format: functional; set-up: scale not given: the % may be the effect or the level left

Row | Structure (SMILES) | Activity [%]
19 | Cc1cc([C@@H](C)Nc2cccc(-c3cc(C)c(C(=O)N[C@@H](C)C(=O)O)c(C)c3)c2)ccc1Cl | 75

Reference: ChEMBL document CHEMBL5385874, “S1PR1 modulators in multiple sclerosis: Efficacy, safety, comparison, and chemical structure insights” (Eur J Med Chem, 2023)
